Laboratory results as given in the NIST ThermoML archive (doi:10.1021/je5008372).

Tests used:
[1] = mn = molality of the nth substance listed, in mol/kg; settings: 86.8 kPa, Liquid; for mass density: Vibrating tube method; for viscosity: Capillary tube (Ostwald / Ubbelohde) method; for speed of sound: Sing-around technique in a fixed-path interferometer
[2] = refractive index (Na D-line) (dimensionless); mn = molality of the nth substance listed, in mol/kg; settings: 86.8 kPa, Liquid, Standard Abbe refractometry

CC(=O)Oc1ccccc1C(=O)O [2-acetoxybenzoic acid] + CC#N
Settings | mass density, 308.15 K [kg/m3] | mass density, 318.15 K [kg/m3] | refractive index, 288.15 K | refractive index, 298.15 K | refractive index, 308.15 K | refractive index, 318.15 K | speed of sound, 318.15 K [m/s] | viscosity, 318.15 K [mPa·s]
[1], m1 = 0.0402 | 768.176 | 757.205 | – | – | – | – | 1198.8 | 0.292
[1], m1 = 0.0834 | 770.675 | 759.697 | – | – | – | – | 1199.2 | 0.295
[1], m1 = 0.11 | 772.198 | 761.21 | – | – | – | – | 1199.3 | 0.297
[1], m1 = 0.1394 | 773.857 | 762.869 | – | – | – | – | 1199.5 | 0.3
[1], m1 = 0.1708 | 775.597 | 764.615 | – | – | – | – | 1199.7 | 0.303
[1], m1 = 0.2076 | 777.624 | 766.635 | – | – | – | – | 1199.9 | 0.306
[1], m1 = 0.2453 | 779.658 | 768.667 | – | – | – | – | 1200.2 | 0.309
[1], m1 = 0.2705 | 781.016 | 770.017 | – | – | – | – | 1200.4 | 0.311
[1], m1 = 0.3006 | 782.624 | 771.63 | – | – | – | – | 1200.7 | 0.314
[2], m1 = 0.0402 | – | – | 1.3467 | 1.3422 | 1.3378 | 1.3333 | – | –
[2], m1 = 0.0834 | – | – | 1.3476 | 1.3431 | 1.3388 | 1.3345 | – | –
[2], m1 = 0.11 | – | – | 1.3483 | 1.3439 | 1.3397 | 1.3352 | – | –
[2], m1 = 0.1394 | – | – | 1.349 | 1.3446 | 1.3404 | 1.3359 | – | –
[2], m1 = 0.1708 | – | – | 1.3498 | 1.3453 | 1.3412 | 1.3367 | – | –
[2], m1 = 0.2076 | – | – | 1.3505 | 1.3462 | 1.3423 | 1.3377 | – | –
[2], m1 = 0.2453 | – | – | 1.3513 | 1.347 | 1.3431 | 1.3388 | – | –
[2], m1 = 0.2705 | – | – | 1.3519 | 1.3477 | 1.3438 | 1.3395 | – | –
[2], m1 = 0.3006 | – | – | 1.3527 | 1.3484 | 1.3446 | 1.3403 | – | –
